Assay results from ChEMBL document CHEMBL4842364 (J Med Chem, 2021).
pIC50: −log10 of the molar value. The source made the active and inactive calls. The calls are words filed in the database; no cut-off is given here.

Assays:
NCI-H23 = experiment: Antiproliferative activity against human NCI-H23 cells assessed as reduction in cell viability after 4 days by CellTiter-Glo assay
[1] = Octanol/buffer distribution coefficient, logD of the compound at pH 7.4; type: physicochemical
[2] = Intrinsic clearance in human microsomes; type: ADME, Microsome
[3] = Intrinsic clearance in mouse microsomes; type: ADME, Microsome
[4] = AUC(0 to 24 hrs) in mouse at 60 mg/kg, po; type: ADME, organism-based; design: time < 24 hr, route oral, dose 60 mg/kg; settings: in vivo
Wee1-like protein kinase = Wee1-like protein kinase (Homo sapiens, UniProt P30291)
Sequence of Wee1-like protein kinase (P30291 whole entry): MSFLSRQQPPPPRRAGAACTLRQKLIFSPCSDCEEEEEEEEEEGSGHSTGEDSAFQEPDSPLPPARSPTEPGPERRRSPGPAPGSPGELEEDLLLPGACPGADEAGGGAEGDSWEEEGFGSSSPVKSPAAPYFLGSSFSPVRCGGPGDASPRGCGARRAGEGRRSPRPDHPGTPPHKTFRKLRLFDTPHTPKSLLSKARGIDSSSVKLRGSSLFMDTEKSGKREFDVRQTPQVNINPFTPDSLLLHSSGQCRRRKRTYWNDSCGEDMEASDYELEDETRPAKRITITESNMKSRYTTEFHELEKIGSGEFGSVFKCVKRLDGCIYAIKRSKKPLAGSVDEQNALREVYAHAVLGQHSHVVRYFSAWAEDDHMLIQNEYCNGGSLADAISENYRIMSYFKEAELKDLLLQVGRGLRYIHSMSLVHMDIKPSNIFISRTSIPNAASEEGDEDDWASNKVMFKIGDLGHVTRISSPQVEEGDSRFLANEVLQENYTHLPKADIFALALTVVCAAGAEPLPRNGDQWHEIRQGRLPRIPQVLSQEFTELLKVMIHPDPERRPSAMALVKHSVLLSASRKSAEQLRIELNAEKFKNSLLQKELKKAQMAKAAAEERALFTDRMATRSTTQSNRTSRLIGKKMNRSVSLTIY
Description: Displacement of Alexa Fluor labelled kinase tracer178 from WEE1 (unknown origin) incubated for 60 mins by FRET assay

[5] = AUC(0 to 24 hrs) in rat at 60 mg/kg, po; type: ADME, organism-based; design: time < 24 hr, route oral, dose 60 mg/kg; settings: in vivo
[6] = AUC(0 to 24 hrs) in mouse at 10 mg/kg, po; type: ADME, organism-based; design: time < 24 hr, route oral, dose 10 mg/kg; settings: in vivo
[7] = Plasma protein binding in human; type: ADME, cell-free; settings: read-out: PPB (converted)
Cytochrome P450 3A4 = Cytochrome P450 3A4 (Homo sapiens, UniProt P08684); experiment: Inhibition of CYP3A4 (unknown origin); type: ADME
Sequence of Cytochrome P450 3A4 (P08684 whole entry): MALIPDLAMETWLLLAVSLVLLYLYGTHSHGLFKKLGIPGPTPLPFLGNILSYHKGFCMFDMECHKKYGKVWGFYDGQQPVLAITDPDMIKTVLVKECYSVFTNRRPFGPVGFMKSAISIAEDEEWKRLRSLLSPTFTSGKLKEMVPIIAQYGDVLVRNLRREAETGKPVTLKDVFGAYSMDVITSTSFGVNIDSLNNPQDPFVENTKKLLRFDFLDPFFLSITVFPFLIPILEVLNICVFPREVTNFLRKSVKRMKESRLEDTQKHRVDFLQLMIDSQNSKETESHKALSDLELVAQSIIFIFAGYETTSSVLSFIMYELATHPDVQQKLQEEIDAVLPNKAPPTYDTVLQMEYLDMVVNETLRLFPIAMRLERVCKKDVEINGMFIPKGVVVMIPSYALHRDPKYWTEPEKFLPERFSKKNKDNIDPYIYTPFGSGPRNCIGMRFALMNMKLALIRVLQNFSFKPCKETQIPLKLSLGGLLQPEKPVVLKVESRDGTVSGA

[8] = Permeability of the compound across apical to basolateral side in human Caco-2 cells; type: ADME, cell-based; settings: read-out: permeability
[9] = Permeability of the compound across basolateral to apical side in human Caco-2 cells; type: ADME, cell-based; settings: read-out: permeability
[10] = Efflux ratio of permeability from basolateral to apical side over apical to basolateral side in human Caco-2 cells; type: ADME, cell-based
A-427 [11] = experiment: Antitumor activity against human A-427 cells xenografted in SCID mouse assessed as reduction in tumor growth at 80 mg/kg, po administered once daily for 28 days and measured twice per weeks; type: functional, organism-based; settings: time 28.0 day
[12] = AUC in mouse plasma at 80 mg/kg, po administered once daily for 28 days; type: ADME, organism-based; design: time 28 day, dose 80 mg/kg
A-427 [13] = experiment: Antiproliferative activity against human A-427 cells assessed as reduction in cell viability after 3 days by CellTiter-Glo assay; type: functional, cell-based; settings: A-427, 72 h

| pIC50 (NCI-H23; Homo sapiens, NCI-H23, 96 h) | logD [1] | CLint scaled [2] [mL/min/kg] | CLint scaled [3] [mL/min/kg] | AUC(0-t) at 24 h [4] [µM·h] | pIC50 (Wee1-like protein kinase) | Structure (SMILES) | also measured |
| --- | --- | --- | --- | --- | --- | --- | --- |
| 6.67 | 1 | 26 | 52 | 1 | 8.49 | C=CCn1c(=O)c2cnc(Nc3ccc(N4CCNCC4)cc3)nc2n1-c1ccc2c(n1)[C@@](O)(CC)CC2 |  |
| 6.82 | 2.1 | 97 | 555 |  | 8.60 | C=CCn1c(=O)c2cnc(Nc3ccc4c(c3)CNCC43CC3)nc2n1-c1ccc2c(n1)[C@@](O)(C(F)(F)F)CC2 |  |
| 5.47 |  |  |  |  | 7.19 | CC[C@@]1(O)CCc2ccc(-n3c4nc(Nc5ccc(N6CCN(C)CC6)cc5)ncc4c(=O)n3CC3CC3)nc21 |  |
| 5.33 |  |  |  |  | < 7.00 | C=CC(F)(F)n1c(=O)c2cnc(Nc3ccc(N4CCN(C)CC4)cc3)nc2n1-c1ccc2c(n1)[C@@](O)(CC)CC2 |  |
| 7.59 | 1.4 | 26 | 152 | 3.9 | 8.49 | C=CCn1c(=O)c2cnc(Nc3ccc(N4CCN(C)CC4)cc3)nc2n1-c1ccc2c(n1)[C@@](N)(CC)CC2 |  |
| 7.09 | 2.5 |  | 186 | 9.6 | 8.59 | C=CCn1c(=O)c2cnc(Nc3ccc4c(c3)CCN(C)C4)nc2n1-c1cccc(C(C)(C)O)n1 |  |
| 5.64 | 1.7 | 12 | < 38 |  | 8.24 | C=CCn1c(=O)c2cnc(Nc3ccc(N4CCN(C)CC4)cc3)nc2n1-c1ccc2c(n1)C(O)CC2 (stereo in doubt; 8) | AUC(0-t) at 24 h [5]: 0.3 µM·h |
| 6.96 | 2.7 | 41 | 395 | 14 | 7.92 | C=CCn1c(=O)c2cnc(Nc3cc(N4CCN(C)CC4)c4ccn(C)c4c3)nc2n1-c1ccc2c(n1)[C@@](O)(CC)CC2 |  |
| 6.73 | 2.4 | 39 | 78 |  | 8.54 | C=CCn1c(=O)c2cnc(Nc3ccc(N4CCN(C)CC4)cc3)nc2n1-c1ccc2c(n1)C(O)(C1CC1)CC2 (single isomer, unassigned) |  |
| 6.94 | 2.7 | 267 | 124 |  | 8.59 | C=CCn1c(=O)c2cnc(Nc3ccc4c(ccn4C4CCN(C)CC4)c3)nc2n1-c1ccc2c(n1)[C@@](O)(CC)CC2 |  |
|  | 3.1 |  | 1060 |  |  | C=CCn1c(=O)c2cnc(Nc3ccc4c(c3)CN(C)CC43CC3)nc2n1-c1cccc(C(C)(C)O)n1 | AUC(0-t) at 24 h [6]: 0.7 µM·h |
| 6.73 | 2.5 | 26 | 206 | 19 | 8.48 | C=CCn1c(=O)c2cnc(Nc3ccc(N4CCN(C)CC4)cc3)nc2n1-c1ccc2c(c1)C(C)(O)CC2 (single isomer, unassigned) | AUC(0-t) at 24 h [5]: 17 µM·h |
| 5.85 | 1.4 | 17 | < 38 |  | 8.34 | C=CCn1c(=O)c2cnc(Nc3ccc(N4CCN(C)CC4)cc3)nc2n1-c1ccc2c(n1)C(C)(O)CO2 (single isomer, unassigned) |  |
| 7.27 | 1.9 |  | 1400 | 6.4 | 8.62 | C=CCn1c(=O)c2cnc(Nc3ccc4c(c3)CNCC43CC3)nc2n1-c1cccc(C(C)(C)O)n1 |  |
| 6.89 | 2.6 | 80 | 121 | 52 | 8.64 | C=CCn1c(=O)c2cnc(Nc3ccc(N4CCN(C)CC4)c(C)c3)nc2n1-c1ccc2c(n1)[C@](C)(O)CC2 | AUC(0-t) at 24 h [5]: 40 µM·h |
| 6.65 | 3.4 | 39 |  |  | 8.70 | Cc1cn(-c2c(Cl)cccc2Cl)c(=O)c2cnc(Nc3ccc(N4CCN(C)CC4)cc3)nc12 | fraction unbound [7]: 0.027; pIC50 (Cytochrome P450 3A4): 5.35; Papp A→B [8]: 1.5 ×10⁻⁶ cm/s; Papp B→A [9]: 1.8 ×10⁻⁶ cm/s; efflux ratio [10]: 1.1 |
| 7.24 | 3 | 102 | 191 | 59 | 8.51 | C=CCn1c(=O)c2cnc(Nc3ccc(N4CCN(C)CC4)c(C)c3)nc2n1-c1ccc2c(n1)[C@@](O)(CC)CC2 | AUC(0-t) at 24 h [5]: 43 µM·h |
| 7.19 | 2.4 |  | 603 |  | 8.59 | C=CCn1c(=O)c2cnc(Nc3ccc4c(c3)CN(C)CC4)nc2n1-c1cccc(C(C)(C)O)n1 | AUC(0-t) at 24 h [6]: 1 µM·h |
| 5.81 | 2.8 | 48 | 293 |  | 8.19 | C=CCn1c(=O)c2cnc(Nc3ccc(N4CCN(C)CC4)cc3)nc2n1-c1ccc2c(n1)C(F)(F)CC2 |  |
| 7.25 | 2.9 | 71 | 126 | 35 | 8.43 | C=CCn1c(=O)c2cnc(Nc3ccc(N4CCN(C)CC4)cc3)nc2n1-c1ccc2c(n1)[C@@](O)(CC)CCC2 | AUC(0-t) at 24 h [5]: 24 µM·h |
| 6.91 | 2.2 | 34 |  | 22 |  | C=CCn1c(=O)c2cnc(Nc3ccc(N4CCN(C)CC4)cc3)nc2n1-c1cccc(C(C)(C)O)n1 [ADAVOSERTIB] | fraction unbound [7]: 0.361; Papp A→B [8]: 3.4 ×10⁻⁶ cm/s; Papp B→A [9]: 42 ×10⁻⁶ cm/s; AUC ([6]; 24 h): 0.8 µM·h; Activity (A-427 [11]): Active; AUC at 672 h [12]: 44 µM·h; pIC50 (A-427 [13]): 7.11 |
|  |  |  |  |  | 8.37 | C=CCn1c(=O)c2cnc(Nc3ccc(N4CCN(C)CC4)cc3)nc2n1-c1ccc2c(n1)C(O)CC2 (stereo in doubt; 9) | pIC50 (NCI-H23; nci-h23): 5.60 |
| 6.73 | 2.8 | 71 | 126 | 33 | 8.44 | C=CCn1c(=O)c2cnc(Nc3ccc(N4CCN(C)CC4)cc3)nc2n1-c1ccc2c(n1)C(O)(C(F)(F)F)CC2 (single isomer, unassigned) | AUC(0-t) at 24 h [5]: 37 µM·h |
| 6.98 | 1.3 |  | 170 | 2.9 |  | C=CCn1c(=O)c2cnc(Nc3ccc4c(c3)CNCC4)nc2n1-c1cccc(C(C)(C)O)n1 | AUC(0-t) at 24 h [6]: 0.2 µM·h |
| 5.94 | 2 | 18 | < 8.6 | 21 | 8.28 | C=CCn1c(=O)c2cnc(Nc3ccc(N4CCN(C)CC4)cc3)nc2n1-c1ccc2c(n1)[C@@](C)(O)CC2 | AUC(0-t) at 24 h [5]: 14 µM·h |
| 6.56 | 2.2 |  | 307 | 1.8 | 8.60 | C=CCn1c(=O)c2cnc(Nc3ccc4c(c3)CN(CCO)CC4)nc2n1-c1cccc(C(C)(C)O)n1 |  |
| 6.57 | 2.3 | 47 | 108 |  | 8.59 | C=CCn1c(=O)c2cnc(Nc3ccc(N4CCN(C)CC4)cc3)nc2n1-c1ccc2c(n1)[C@@](O)(C(F)F)CC2 |  |
| 6.56 | 2.6 | 135 | 1110 |  | 8.49 | C=CCn1c(=O)c2cnc(Nc3cccc(N4CCN(C)CC4)c3)nc2n1-c1ccc2c(n1)[C@@](O)(CC)CC2 |  |
| 5.24 |  |  |  |  | 7.66 | CC[C@@]1(O)CCc2ccc(-n3c4nc(Nc5ccc(N6CCN(C)CC6)cc5)ncc4c(=O)n3CC=C(F)F)nc21 |  |
| 6.75 | 2.6 | 18 | 66 | 54 | 8.43 | C=CCn1c(=O)c2cnc(Nc3ccc(N4CCN(C)CC4)cc3)nc2n1-c1ccc2c(n1)[C@](C)(O)CCC2 | AUC(0-t) at 24 h [5]: 9.4 µM·h; Activity (A-427 [11]): Active; AUC at 672 h [12]: 83 µM·h; pIC50 (A-427 [13]): 6.81 |
